# Laboratory results from patent US20050089509A1 (priority 2003, published 2005).
# Values joined by “and” are separate entries in the source; they are usually repeats but may differ in a detail not shown here. Equal entries are not always repeated. Where two headings read alike, the source gives them in different places.
# Tests used:
# F. novicida [1] = format: cell-based, F. tularensis subsp. novicida
# J774 cells = format: cell-based, murine
# [2] = mouse, in vivo
# [3] = cited from earlier work
# F. novicida [4] = test system: F. novicida; design: species or system F. tularensis subsp. novicida; settings: in vivo
# F. novicida [5] = test system: F. novicida; design: species or system F. tularensis subsp. novicida; settings: in vivo; remark: listed apart in the source
# F. novicida [6] = test system: F. novicida; design: species or system F. tularensis subsp. novicida; settings: in vivo; remark: listed apart in the source
Substance,intracellular bacterial replication in macrophages (F. novicida [1]),TNF-α increase (J774 cells),toxicity [2],efficacy of route of delivery ([2]; ip),half-life in vivo [3],toxicity ([3]; in vivo),bacteria in the liver and spleen (F. novicida [4]),bacteria recovered from the spleens (F. novicida [4]),time to death (F. novicida [5]),animals succumbed to the infection by day (F. novicida [6]),TNF-α detected (in words) (J774 cells),survival (F. novicida [6]),survival / control of the disease (in words) (F. novicida [6])
IFN-γ,markedly inhibited replication of bacteria,9 fold and 18 fold,–,–,–,–,–,–,–,–,–,–,–
IL-12,did not inhibit bacterial replication,–,no toxicity observed,most efficacious,longer sustainable half-life than IFN-γ,very little toxicity,marked reduction of bacteria,no bacteria recovered,significantly increased the time to death,≤ 6 days,very little TNF-α,–,–
gentamicin,–,–,–,–,–,–,–,–,–,–,–,17%,ineffective in controlling the disease
